Source: ChEMBL document CHEMBL1201862, “PubChem BioAssay data set” (2004)
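Dose response: 5 concentrations. Exposure: 48 h. Format: 96-well plates. Endpoint: linear interpolation; highest concentration if not reached. GI50: concentration for 50% inhibition of growth.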 Active and inactive are the calls of the source. Cut-off read from the data, not from the text of the source: active = GI50 up to about 1.1 µM and inactive = higher.

Legend:
Assay in all cases: growth of human tumour cells (NCI), 48 h
[1] = test system: A498
[2] = test system: HOP-62
[3] = test system: Hs-578T
[4] = test system: IGROV-1
[5] = test system: KM12
[6] = test system: MOLT-4
[7] = test system: NCI-H23
[8] = test system: NCI-H522
[9] = test system: OVCAR-4
[10] = test system: OVCAR-5
[11] = test system: OVCAR-8
[12] = test system: SF-295
[13] = test system: SK-MEL-5
[14] = test system: SK-OV-3
[15] = test system: SN12C
[16] = test system: SNB-75
[17] = test system: SW-620
[18] = test system: TK-10
[19] = test system: UACC-257
[20] = test system: UACC-62

SMILES | GI50 [1] | GI50 [2] | GI50 [3] | GI50 [4] | GI50 [5] | GI50 [6] | GI50 [7] | GI50 [8] | GI50 [9] | GI50 [10] | GI50 [11] | GI50 [12] | GI50 [13] | GI50 [14] | GI50 [15] | GI50 [16] | GI50 [17] | GI50 [18] | GI50 [19] | GI50 [20]
CCC1([N+](=O)[O-])CN(N=O)C1 | > 100 µM (inactive) | > 100 µM (inactive) | > 100 µM (inactive) | > 100 µM (inactive) | > 100 µM (inactive) | > 100 µM (inactive) | > 100 µM (inactive) | > 100 µM (inactive) | > 100 µM (inactive) | > 100 µM (inactive) | > 100 µM (inactive) | > 100 µM (inactive) | > 100 µM (inactive) | > 100 µM (inactive) | > 100 µM (inactive) | > 100 µM (inactive) | > 100 µM (inactive) | > 100 µM (inactive) | > 100 µM (inactive) | > 100 µM (inactive)
O[C@H]1[C@H](O)[C@@H](O)[C@@]2(O)C[C@@H](O)[C@@H]1N2 | > 100 µM (inactive) | > 100 µM (inactive) | > 100 µM (inactive) | > 100 µM (inactive) | > 100 µM (inactive) | > 100 µM (inactive) | > 100 µM (inactive) | > 100 µM (inactive) | > 100 µM (inactive) | > 10 µM (inactive) | > 100 µM (inactive) | > 100 µM (inactive) | > 100 µM (inactive) | > 100 µM (inactive) | > 100 µM (inactive) | > 100 µM (inactive) | > 100 µM (inactive) | > 100 µM (inactive) | > 100 µM (inactive) | > 100 µM (inactive)
O=S1(=O)CCC2=CC(C(F)(F)F)=CC(C(F)(F)F)=CN21 | 2.08 µM (inactive) | 2.34 µM (inactive) | 3.1 µM (inactive) | 1.84 µM (inactive) | 1.71 µM (inactive) | 0.243 µM (active) | 1.19 µM (inactive) | 0.236 µM (active) | 1.71 µM (inactive) | 2.11 µM (inactive) | 0.308 µM (active) | 2.12 µM (inactive) | 1.42 µM (inactive) | 3.86 µM (inactive) | 1.55 µM (inactive) | 1.71 µM (inactive) | 0.302 µM (active) | 0.697 µM (active) | 2.14 µM (inactive) | 1.64 µM (inactive)
CN(C)CCNc1ccc2c(=O)n(CCN(C)C)c(=O)n3c4ccc([N+](=O)[O-])cc4c(=O)c1c23 | 1.41 µM (inactive) | 0.384 µM (active) | 1.01 µM (active) | 0.126 µM (active) | 0.518 µM (active) | < 0.0141 µM (active) | 0.177 µM (active) | 0.08 µM (active) | 0.301 µM (active) | 0.532 µM (active) | 0.248 µM (active) | 0.359 µM (active) | 1.04 µM (active) | 0.76 µM (active) | 0.197 µM (active) | 0.293 µM (active) | 0.0524 µM (active) | 1.09 µM (active) | 0.728 µM (active) | 1.24 µM (inactive)
CC(=O)NC1CONC1=O (stereo not given) | > 100 µM (inactive) | > 100 µM (inactive) | > 100 µM (inactive) | > 100 µM (inactive) | > 100 µM (inactive) | > 100 µM (inactive) | > 100 µM (inactive) | > 100 µM (inactive) | > 100 µM (inactive) | > 100 µM (inactive) | > 100 µM (inactive) | > 100 µM (inactive) | > 100 µM (inactive) | > 100 µM (inactive) | > 100 µM (inactive) | > 100 µM (inactive) | > 100 µM (inactive) | > 100 µM (inactive) | > 100 µM (inactive) | > 100 µM (inactive)
CC(C)(C)c1ccc(-c2nc3ccccc3c(=O)o2)cc1 | 71.6 µM (inactive) | 31.8 µM (inactive) | 68.7 µM (inactive) | 37.3 µM (inactive) | 29.1 µM (inactive) | 20.4 µM (inactive) | 34.3 µM (inactive) | 30.3 µM (inactive) | 35.7 µM (inactive) | 44.2 µM (inactive) | 47.4 µM (inactive) | 23.8 µM (inactive) | 17 µM (inactive) | 83.4 µM (inactive) | 34.3 µM (inactive) | 24 µM (inactive) | 48.2 µM (inactive) | 70.1 µM (inactive) | 81.3 µM (inactive) | 30.3 µM (inactive)
CC1(C)C(=O)N(O)C(C)(C)N1O | > 10 µM (inactive) | > 10 µM (inactive) | > 10 µM (inactive) | > 10 µM (inactive) | > 10 µM (inactive) | > 10 µM (inactive) | > 10 µM (inactive) | > 10 µM (inactive) | > 10 µM (inactive) | > 10 µM (inactive) | > 10 µM (inactive) | > 10 µM (inactive) | > 10 µM (inactive) | > 10 µM (inactive) | > 10 µM (inactive) | > 10 µM (inactive) | > 10 µM (inactive) | > 10 µM (inactive) | > 10 µM (inactive) | > 10 µM (inactive)
COc1cc(C2c3cc4c(cc3OC3(OC)COC(=O)C23)OCO4)cc(OC)c1OC (stereo not given) | 0.281 µM (active) | 0.48 µM (active) | 0.355 µM (active) | 0.425 µM (active) | 0.129 µM (active) | 0.456 µM (active) | 0.389 µM (active) | 0.18 µM (active) | 4.85 µM (inactive) | 3.66 µM (inactive) | 0.332 µM (active) | 0.173 µM (active) | 0.292 µM (active) | 0.348 µM (active) | 0.478 µM (active) | 0.311 µM (active) | 0.286 µM (active) | 1.19 µM (inactive) | 2.66 µM (inactive) | 0.311 µM (active)
CN(C)CCNc1ccc(C(=O)NCCCN(C)CCCNC(=O)c2ccc(NCCN(C)C)c3c(=O)c4ccccc4[nH]c23)c2[nH]c3ccccc3c(=O)c12 | 0.105 µM (active) | < 0.0291 µM (active) | < 0.0347 µM (active) | < 0.01 µM (active) | 0.0333 µM (active) | < 0.01 µM (active) | 0.0489 µM (active) | < 0.01 µM (active) | 0.0322 µM (active) | 0.0458 µM (active) | 0.0272 µM (active) | 0.0328 µM (active) | 0.146 µM (active) | 0.109 µM (active) | < 0.01 µM (active) | < 0.01 µM (active) | < 0.0113 µM (active) | 0.828 µM (active) | 0.968 µM (active) | 0.0349 µM (active)
Cn1cnc([N+](=O)[O-])c1[Se]c1ncnc2nc[nH]c12 | 3.59 µM (inactive) | 12 µM (inactive) | 3.7 µM (inactive) | 3.38 µM (inactive) | 5.69 µM (inactive) | 4.71 µM (inactive) | 17.3 µM (inactive) | 3.57 µM (inactive) | 3.32 µM (inactive) | 11.4 µM (inactive) | 8.79 µM (inactive) | 4.21 µM (inactive) | 1.66 µM (inactive) | 15.4 µM (inactive) | 11.7 µM (inactive) | 19.6 µM (inactive) | 10.3 µM (inactive) | 1.91 µM (inactive) | 2.04 µM (inactive) | 1.77 µM (inactive)
CC(=O)OC1=CC2=CC[C@H]3[C@@H]4CCC(=O)[C@@]4(C)CC(=O)[C@]3(S)[C@@]2(C)CC1 | 41.1 µM (inactive) | 38.9 µM (inactive) | 25.1 µM (inactive) | 27 µM (inactive) | 26.3 µM (inactive) | 17.4 µM (inactive) | 36.6 µM (inactive) | 20 µM (inactive) | 57.8 µM (inactive) | > 100 µM (inactive) | 31.3 µM (inactive) | 48.4 µM (inactive) | 31.6 µM (inactive) | 65.6 µM (inactive) | 37.6 µM (inactive) | 40.5 µM (inactive) | 31.6 µM (inactive) | 27.9 µM (inactive) | 27.3 µM (inactive) | 26.1 µM (inactive)
O=C(O)c1cnccc1-c1cc(=O)[nH]n1-c1ccccc1 | > 100 µM (inactive) | 51.1 µM (inactive) | > 91.8 µM (inactive) | > 21.3 µM (inactive) | 9.75 µM (inactive) | 13.9 µM (inactive) | 97.7 µM (inactive) | > 63.4 µM (inactive) | > 51.9 µM (inactive) | > 63.4 µM (inactive) | 52.8 µM (inactive) | 21.6 µM (inactive) | 52.4 µM (inactive) | > 100 µM (inactive) | > 87.7 µM (inactive) | > 68.5 µM (inactive) | > 23.2 µM (inactive) | > 100 µM (inactive) | 66.1 µM (inactive) | 17.4 µM (inactive)
COc1cc2c(cc1OCCCCN1CCN(CCCCOc3cc4c(cc3OC)C(=O)N3CCC[C@H]3C=N4)CC1)N=C[C@@H]1CCCN1C2=O | 0.0543 µM (active) | 0.0236 µM (active) | 0.0608 µM (active) | 0.146 µM (active) | 0.0628 µM (active) | < 0.01 µM (active) | < 0.0241 µM (active) | < 0.01 µM (active) | 0.0776 µM (active) | 0.0417 µM (active) | < 0.0172 µM (active) | < 0.0352 µM (active) | 0.0138 µM (active) | 4.45 µM (inactive) | < 0.01 µM (active) | 0.0262 µM (active) | < 0.0119 µM (active) | 0.0589 µM (active) | 0.0627 µM (active) | < 0.0105 µM (active)
NC(=O)c1cccc(/N=c2\oc3ccc(Br)cc3cc2-c2nc3ccccc3[nH]2)c1 | 18.4 µM (inactive) | 16.2 µM (inactive) | 27.4 µM (inactive) | 17.9 µM (inactive) | 18.5 µM (inactive) | 12.5 µM (inactive) | 16 µM (inactive) | 22.1 µM (inactive) | 18.8 µM (inactive) | 16.3 µM (inactive) | 7.62 µM (inactive) | 15.8 µM (inactive) | 1.81 µM (inactive) | 16.4 µM (inactive) | 17.4 µM (inactive) | 1.47 µM (inactive) | 15.3 µM (inactive) | 17 µM (inactive) | 20 µM (inactive) | 14.4 µM (inactive)
